Data as given in US20190055279A1, “NOVEL POLYPEPTIDES WITH IMPROVED PROTEOLYTIC STABILITY, AND METHODS OF PREPARING AND USING SAME” (TUFTS UNIVERSITY, priority 2015, published 2019).
“And” between values parts separate entries of the source, which are not always exact repeats. Identical values can stand only once. Values belong to the compound of their own block, whether it stands above or below them. Where a SMILES comes first, the peptide text is derived from it. Side-chain parts run from the residue outwards. [ ]: non-standard residue; d: D form. The star is where a group is joined. N(CH2CF3)His = O=C(O)[C@H](Cc1c[nH]cn1)NCC(F)(F)F; Palmitoyl = CCCCCCCCCCCCCCCC(=O)*; βAla = NCCC(=O)O

Key:
[1] = Plasma GLP-2R agonist activity 24 h after s.c. injection in mice (luciferase reporter gene assay); format: in vivo; details: 1.25 μg s.c., compared with Gattex
Experimental: Clearance of this compound was compared to that of Gattex, an established GLP-2 based drug, Compounds (1.25 μg) were injected subcutaneously (s.c.) in mice. Plasma was collected after 24 h and analyzed by luciferase reporter gene assay for GLP-2R agonist activity.
Compounds (1.25 μg) were injected s.c. in mice. Plasma was collected after 24 h and analyzed by luciferase reporter gene assay for GLP-2R agonist activity.

DPP4 [2] = molecular target: T1, DPP4 (Homo sapiens, UniProt P27487); assay: DPP4 degradation of GLP-2 peptides: incubation with recombinant DPP4, then GLP-2R reporter assay
T1 sequence (P27487 whole entry, species assumed): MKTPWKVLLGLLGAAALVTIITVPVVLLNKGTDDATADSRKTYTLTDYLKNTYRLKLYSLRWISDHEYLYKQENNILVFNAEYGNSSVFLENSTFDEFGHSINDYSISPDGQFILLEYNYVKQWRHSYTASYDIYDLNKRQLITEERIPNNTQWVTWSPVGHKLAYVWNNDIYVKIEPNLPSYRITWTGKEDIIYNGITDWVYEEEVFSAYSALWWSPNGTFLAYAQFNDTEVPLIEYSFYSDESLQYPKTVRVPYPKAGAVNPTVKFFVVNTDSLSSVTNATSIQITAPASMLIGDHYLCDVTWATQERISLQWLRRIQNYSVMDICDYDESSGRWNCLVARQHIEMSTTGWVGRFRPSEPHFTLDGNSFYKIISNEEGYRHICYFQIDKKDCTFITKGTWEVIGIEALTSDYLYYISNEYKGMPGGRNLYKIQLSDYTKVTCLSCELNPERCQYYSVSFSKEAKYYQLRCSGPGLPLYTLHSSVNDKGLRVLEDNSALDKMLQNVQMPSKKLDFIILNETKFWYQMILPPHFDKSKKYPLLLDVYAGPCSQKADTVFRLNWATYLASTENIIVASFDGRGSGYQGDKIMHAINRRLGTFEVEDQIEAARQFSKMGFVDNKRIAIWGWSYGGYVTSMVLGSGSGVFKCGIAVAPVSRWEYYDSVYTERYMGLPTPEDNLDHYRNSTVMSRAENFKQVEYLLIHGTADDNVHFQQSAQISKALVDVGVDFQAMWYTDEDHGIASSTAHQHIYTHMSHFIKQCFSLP
Experimental: Peptides were incubated with vehicle or recombinant DPP4. Serial dilutions of GLP2-1 and GLP2-4 were then applied to HEK293 cells, which had been transfected with cDNA encoding human GLP-2R and a cAMP-responsive reporter gene.
Peptides were incubated with recombinant DPP4. Serial dilutions of GLP-2 and GLP2-4 were then applied to HEK293 cells, which had been transfected with cDNA encoding human GLP-2R and a cAMP-responsive reporter gene. […] N=4, mean+SEM.
DPP4 resistance (FIG. 13): Lipidated peptides are compared with the prototype, F-GLP2-palm. After an overnight incubation (16 hrs) in the presence vs. the absence of DPP4, receptor mediated function is assessed as shown elsewhere herein. As a DPP4 susceptible control, parallel experiments are done using GLP-2. […] Following overnight preincubation, serial dilutions of ligands were prepared and added to GLP-2R expressing cells for 4 hours. A luciferase reporter gene assay was used to monitor Gαs coupled second messenger signaling.

C57BL/6J mice = assay: Intestinal mucosal growth after five daily s.c. injections in C57BL/6J mice; format: in vivo; details: s.c. once daily for five days; for intestinal mucosal growth / trophic effect: 25 μg/mouse for villus height; for intestinal weight: sacrificed on day 6, N=6 animals/group
Experimental: C57BL/6J mice were injected s.c. once daily for five days with either vehicle, GLP2-L17K(l1)-4, or Gattex at indicated doses. Animals were sacrificed on day 6, followed by analysis of intestinal tissue.
C57BL/6J mice were injected s.c. once daily for five days with either vehicle, GLP2-L17K [L1]-4 or Gattex at indicated doses. Animals were sacrificed on day 6, followed by measurement of intestinal weight. […] C57BL/6J mice were injected s.c. once daily for five days with either 25 μg of GLP2-L17K [L1]-4 or vehicle. Animals were sacrificed on day 6.

DPP2 = DPP2 (Homo sapiens, UniProt Q9UHL4); assay: Stability assay with or without DPP2, read out by receptor bioassay (FIG. 9A); details: incubated with or without DPP2
DPP4 [3] = molecular target: T1, DPP4; assay: Sensitivity to DPP4: overnight incubation with recombinant DPP4 or vehicle, then receptor agonist bioassay; details: overnight incubation with or without DPP4, readout at cognate receptor
Experimental: Plotting concentration versus the luciferase activity yielded quantitative parameters for combined binding (potency) and signaling (efficacy) in a single step. […] DPP4 treated peptides: 10 μl of 0.26 mM peptide were incubated with 2 μL DPP4 in buffer ±DMSO for 18 hrs. Control peptides: 10 μl of 0.26 mM peptide was added to buffer ±DMSO. The final DMSO concentration was the same for all peptides and all peptides were diluted to 0.26 mM concentrations for the DPP4 assay.
Compounds are incubated overnight at 37° C. in the presence of recombinant DPP4 or vehicle (TRIS buffer). The samples are then assessed in GLP-1R agonist assays.
Compounds were incubated overnight at 37° C. in the presence of recombinant DPP4 or vehicle (TRIS buffer, pH 8.0). The samples were then assessed in GLP1R agonist assays as described elsewhere herein.

FAP = molecular target: T2, FAP (Homo sapiens, UniProt Q12884); assay: Stability assay with or without FAP, read out by receptor bioassay (FIG. 9A, FIG. 18); details: incubated with or without FAP
T2 sequence (Q12884 1-760): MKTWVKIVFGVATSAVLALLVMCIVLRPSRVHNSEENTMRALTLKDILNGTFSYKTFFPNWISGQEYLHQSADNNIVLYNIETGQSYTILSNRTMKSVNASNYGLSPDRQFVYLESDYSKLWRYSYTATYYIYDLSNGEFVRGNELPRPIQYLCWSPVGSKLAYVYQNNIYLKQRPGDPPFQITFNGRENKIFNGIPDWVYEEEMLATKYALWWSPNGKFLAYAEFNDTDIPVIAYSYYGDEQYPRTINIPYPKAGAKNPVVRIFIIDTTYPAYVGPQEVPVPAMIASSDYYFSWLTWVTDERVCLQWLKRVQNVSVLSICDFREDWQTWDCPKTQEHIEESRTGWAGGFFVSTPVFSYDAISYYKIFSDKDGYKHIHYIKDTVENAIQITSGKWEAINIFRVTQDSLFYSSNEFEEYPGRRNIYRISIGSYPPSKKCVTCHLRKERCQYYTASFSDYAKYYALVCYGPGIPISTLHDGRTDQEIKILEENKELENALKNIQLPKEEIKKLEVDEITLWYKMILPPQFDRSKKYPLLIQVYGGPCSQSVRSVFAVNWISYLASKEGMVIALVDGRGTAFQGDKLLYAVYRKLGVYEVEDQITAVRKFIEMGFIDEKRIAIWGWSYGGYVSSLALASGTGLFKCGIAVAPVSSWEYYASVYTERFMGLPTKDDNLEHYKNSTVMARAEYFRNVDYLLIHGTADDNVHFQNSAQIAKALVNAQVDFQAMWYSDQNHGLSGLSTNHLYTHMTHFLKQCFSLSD

[4] = cited from earlier work

bioactivity in plasma 24 h after injection [1]: extended bioactivity in vivo
DPP4 degradation / resistance (in words) (DPP4 [2]; GLP-2R readout): refractory to DPP4 degradation
DPP4 degradation / resistance (in words) (DPP4 [2]; GLP-2R readout, listed as F-GLP2-palm): protease (DPP4) resistant
SMILES: CCCCCCCCCCCCCCCC(=O)NCCC(=O)NCCCC[C@H](NC(=O)[C@H](CC(N)=O)NC(=O)[C@H](CC(=O)O)NC(=O)[C@H](CC(C)C)NC(=O)[C@@H](NC(=O)[C@@H](NC(=O)[C@H](CC(N)=O)NC(=O)[C@H](CCSC)NC(=O)[C@H](CCC(=O)O)NC(=O)[C@H](CC(=O)O)NC(=O)[C@H](CO)NC(=O)[C@H](Cc1ccccc1)NC(=O)[C@H](CO)NC(=O)CNC(=O)[C@H](CC(=O)O)NC(=O)[C@H](C)NC(=O)[C@H](Cc1c[nH]cn1)NCC(F)(F)F)[C@@H](C)O)[C@@H](C)CC)C(=O)N[C@@H](C)C(=O)N[C@@H](C)C(=O)N[C@@H](CCCNC(=N)N)C(=O)N[C@@H](CC(=O)O)C(=O)N[C@@H](Cc1ccccc1)C(=O)N[C@H](C(=O)N[C@@H](CC(N)=O)C(=O)N[C@@H](Cc1c[nH]c2ccccc12)C(=O)N[C@@H](CC(C)C)C(=O)N[C@H](C(=O)N[C@@H](CCC(N)=O)C(=O)N[C@H](C(=O)N[C@@H](CCCCN)C(=O)N[C@H](C(=O)N[C@H](C(=O)N[C@@H](CC(=O)O)C(=O)O)[C@@H](C)O)[C@@H](C)CC)[C@@H](C)O)[C@@H](C)CC)[C@@H](C)CC [GLP2-L17K(l1)-4] (H-[N(CH2CF3)His]ADGSFSDEMNTILDNK([βAla-Palmitoyl])AARDFINWLIQTKITD-OH; N-terminus and C-terminus assumed)
bioactivity in plasma 24 h after injection ([1]; listed as GLP2-L17K [L1]-4): remains at high levels in the circulation
intestinal mucosal growth / trophic effect (C57BL/6J mice): induces intestinal mucosal growth
intestinal mucosal growth / trophic effect (C57BL/6J mice; listed as GLP2-L17K [L1]-4): trophic effect on the intestinal mucosa
intestinal weight (C57BL/6J mice): enhances intestinal weight
intestinal weight (C57BL/6J mice; listed as GLP2-L17K [L1]-4): increased intestinal weight in a dose dependent manner

SMILES: CC[C@H](C)[C@H](NC(=O)[C@H](CO)NC(=O)[C@H](Cc1ccc(O)cc1)NC(=O)[C@H](CC(=O)O)NC(=O)[C@H](CO)NC(=O)[C@@H](NC(=O)[C@H](Cc1ccccc1)NC(=O)[C@@H](NC(=O)CNC(=O)[C@H](CCC(=O)O)NC(=O)[C@H](C)NC(=O)[C@H](Cc1ccc(O)cc1)NCC(F)(F)F)[C@@H](C)O)[C@@H](C)CC)C(=O)N[C@@H](C)C(=O)N[C@@H](CCSC)C(=O)N[C@@H](CC(=O)O)C(=O)N[C@@H](CCCCN)C(=O)N[C@H](C(=O)N[C@@H](Cc1c[nH]cn1)C(=O)N[C@@H](CCC(N)=O)C(=O)N[C@@H](CCC(N)=O)C(=O)N[C@@H](CC(=O)O)C(=O)N[C@@H](Cc1ccccc1)C(=O)N[C@H](C(=O)N[C@@H](CC(N)=O)C(=O)N[C@@H](Cc1c[nH]c2ccccc12)C(=O)N[C@@H](CC(C)C)C(=O)N[C@@H](CC(C)C)C(=O)N[C@@H](C)C(=O)N[C@@H](CCC(N)=O)C(=O)N[C@@H](CCCCN)C(=O)NCC(=O)N[C@@H](CCCCN)C(=O)N[C@@H](CCCCN)C(=O)N[C@@H](CC(N)=O)C(=O)N[C@@H](CC(=O)O)C(=O)N[C@@H](Cc1c[nH]c2ccccc12)C(=O)N[C@@H](CCCCN)C(=O)N[C@@H](Cc1c[nH]cn1)C(=O)N[C@@H](CC(N)=O)C(=O)N[C@H](C(=O)N[C@H](C(=O)N[C@@H](CCC(N)=O)C(=O)O)[C@@H](C)O)[C@@H](C)CC)C(C)C)[C@@H](C)CC [I-4]
stability to DPP2 (in words) (DPP2): stable
DPP4 degradation / resistance (in words) (DPP4 [3]): resistant
DPP4 degradation / resistance (in words) (DPP4 [3]; listed as I4): stable
stability to FAP (in words) (FAP): stable

SMILES: CC[C@H](C)[C@H](NC(=O)[C@H](Cc1ccccc1)NC(=O)[C@H](CCC(=O)O)NC(=O)[C@H](CCCCN)NC(=O)[C@H](C)NC(=O)[C@H](C)NC(=O)[C@H](CCC(N)=O)NC(=O)CNC(=O)[C@H](CCC(=O)O)NC(=O)[C@H](CC(C)C)NC(=O)[C@H](Cc1ccc(O)cc1)NC(=O)[C@H](CO)NC(=O)[C@H](CO)NC(=O)[C@@H](NC(=O)[C@H](CC(=O)O)NC(=O)[C@H](CO)NC(=O)[C@@H](NC(=O)[C@H](Cc1ccccc1)NC(=O)[C@@H](NC(=O)CNC(=O)[C@H](CCC(=O)O)NC(=O)[C@H](C)NC(=O)[C@@H](N)Cc1c[nH]cn1)[C@@H](C)O)[C@@H](C)O)C(C)C)C(=O)N[C@@H](C)C(=O)N[C@@H](Cc1c[nH]c2ccccc12)C(=O)N[C@@H](CC(C)C)C(=O)N[C@H](C(=O)N[C@@H](CCCCN)C(=O)NCC(=O)N[C@@H](CCCNC(=N)N)C(N)=O)C(C)C [GLP-1, glucagon-like peptide-1, reference compound]
stability to DPP2 (in words) (DPP2): major potency losses
stability to FAP (in words) (FAP): major potency losses

DPP4 degradation / resistance (in words) (DPP4 [2]; GLP-2R readout): degraded by DPP4
loss in potency induced by DPP4 (DPP4 [2]; GLP-2R readout, N=4): > 40 fold
peptide degraded by DPP4 (DPP4 [2]; inferred from potency loss): > 97% and ~97%
SMILES: CC[C@H](C)[C@H](NC(=O)[C@H](Cc1ccccc1)NC(=O)[C@H](CC(=O)O)NC(=O)[C@H](CCCN=C(N)N)NC(=O)[C@H](C)NC(=O)[C@H](C)NC(=O)[C@H](CC(C)C)NC(=O)[C@H](CC(N)=O)NC(=O)[C@H](CC(=O)O)NC(=O)[C@H](CC(C)C)NC(=O)[C@@H](NC(=O)[C@@H](NC(=O)[C@H](CC(N)=O)NC(=O)[C@H](CCSC)NC(=O)[C@H](CCC(=O)O)NC(=O)[C@H](CC(=O)O)NC(=O)[C@H](CO)NC(=O)[C@H](Cc1ccccc1)NC(=O)[C@H](CO)NC(=O)CNC(=O)[C@H](CC(=O)O)NC(=O)[C@H](C)NC(=O)[C@@H](N)Cc1cnc[nH]1)[C@@H](C)O)[C@@H](C)CC)C(=O)N[C@@H](CC(N)=O)C(=O)N[C@@H](Cc1c[nH]c2ccccc12)C(=O)N[C@@H](CC(C)C)C(=O)N[C@H](C(=O)N[C@@H](CCC(N)=O)C(=O)N[C@H](C(=O)N[C@@H](CCCCN)C(=O)N[C@H](C(=O)N[C@H](C(=O)N[C@@H](CC(=O)O)C(=O)O)[C@@H](C)O)[C@@H](C)CC)[C@@H](C)O)[C@@H](C)CC [GLP-2, glucagon-like peptide-2, reference compound]
half-life in vivo [4]: 7 min
